Data: patent publication US6737383B1, “Herbicidal oxadiazolidines” (priority 1999, dated 2004)

What was measured:
bedstraw = test: Test B pre/postemergence bedstraw; assay type: in vivo, Galium aparine
In short: (§1)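 Herbicidal effect was estimated by eye on a ten-point control scale after plants spent twelve to sixteen days in a greenhouse following soil or foliar treatment. Foliar sprays targeted plants at one to four leaves; all doses were formulated in a non-phytotoxic solvent with surfactant.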

blackgrass = test: Test B pre/postemergence blackgrass; assay type: in vivo, Alopecurus myosuroides
In short: as §1

surinam grass = test: Test B pre/postemergence surinam grass; assay type: in vivo, Brachiaria decumbens
In short: as §1

cocklebur = test: Test B pre/postemergence cocklebur; assay type: in vivo, Xanthium strumarium
In short: as §1

corn = test: Test B pre/postemergence corn; assay type: in vivo, Zea mays
In short: as §1

crabgrass = test: Test B pre/postemergence crabgrass; assay type: in vivo, Digitaria sanguinalis
In short: as §1

soybean = test: Test B pre/postemergence soybean; assay type: in vivo, Glycine max
In short: as §1

sugar beet = test: Test B pre/postemergence sugar beet; assay type: in vivo, Beta vulgaris
In short: as §1

velvetleaf = test: Test B pre/postemergence velvetleaf; assay type: in vivo, Abutilon theophrasti
In short: as §1

wheat = test: Test B pre/postemergence wheat; assay type: in vivo, Triticum aestivum
In short: as §1

wild oat = test: Test B pre/postemergence wild oat; assay type: in vivo, Avena fatua
In short: as §1

purple nutsedge = test: Test B pre/postemergence purple nutsedge; assay type: in vivo, Cyperus rotundus
In short: as §1

rice = test: Test B flood test rice; assay type: in vivo, Oryza sativa
In short: (§2)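 Plants were grown to the 2-leaf stage before treatment with test chemical, then held in a greenhouse for twelve to sixteen days. Injury was visually rated against untreated controls on a 0–10 scale, where 0 is no effect and 10 is complete control.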

smallflower flatsedge = test: Test B flood test smallflower flatsedge; assay type: in vivo, Cyperus difformis
In short: as §2

duck salad = test: Test B flood test duck salad; assay type: in vivo, Heteranthera limosa
In short: as §2

bamyardgrass = test: Test B flood test barnyardgrass; assay type: in vivo, Echinochloa crus-galli
In short: as §2

[1] = Postemergence, Rate 31 g/ha, visual rating, scale 0 to 10 (0 no effect, 10 complete control)
[2] = Preemergence, Rate 31 g/ha, visual rating, scale 0 to 10 (0 no effect, 10 complete control)
[3] = Preemergence, Rate 62 g/ha, scale of 0 to 10 where 0 is no effect and 10 is complete control
[4] = Rate 16 g/ha, Postemergence, scale 0 to 10, 0 no effect, 10 complete control
[5] = Rate 16 g/ha, Preemergence, scale 0 to 10, 0 no effect, 10 complete control
[6] = Rate 62 g/ha, Postemergence, scale 0 to 10 (0 no effect, 10 complete control)
[7] = Rate 125 g/ha, Postemergence, scale of 0 to 10 where 0 is no effect and 10 is complete control
[8] = Rate 125 g/ha, Preemergence, scale of 0 to 10 where 0 is no effect and 10 is complete control
[9] = Rate 16 g/ha, head printed Pre-emergence (flood test species), scale 0 to 10, 0 no effect, 10 complete control
[10] = Rate 31 g/ha, Pre-emergence section (flood test species), scale 0 to 10
[11] = Rate 62 g/ha, headed Pre-emergence (flood test species), scale 0 to 10 (0 no effect, 10 complete control)
[12] = Rate 125 g/ha, Pre-emergence, flood test species, scale 0 to 10 where 0 is no effect and 10 is complete control
[13] = Rate 250 g/ha, Pre-emergence, flood-test species, scale 0 to 10, 0 is no effect, 10 is complete control
[14] = Rate 500 g/ha, Pre-emergence, flood test species, scale 0 to 10 (0 no effect, 10 complete control)

C=CCCCn1c(=O)on(C(=O)N(c2ccc(F)cc2)C(C)C)c1=O [Compound 291]
Bedstraw plant response rating (bedstraw; [1]): 0 | Bedstraw plant response rating (bedstraw; [2]): 0 | Bedstraw plant response rating (bedstraw; [3]): 0 | Bedstraw plant response rating (bedstraw; [4]): 0 | Bedstraw plant response rating (bedstraw; [5]): 0 | Bedstraw plant response rating (bedstraw; [6]): 0 | Bedstraw plant response rating (bedstraw; [7]): 3 | Bedstraw plant response rating (bedstraw; [8]): 0 | Blackgrass plant response rating (blackgrass; [1]): 0 | Blackgrass plant response rating (blackgrass; [2]): 0 | Blackgrass plant response rating (blackgrass; [3]): 0 | Blackgrass plant response rating (blackgrass; [4]): 0 | Blackgrass plant response rating (blackgrass; [5]): 0 | Blackgrass plant response rating (blackgrass; [6]): 1 | Blackgrass plant response rating (blackgrass; [7]): 2 | Blackgrass plant response rating (blackgrass; [8]): 8 | B. signalgrass plant response rating (surinam grass; [1]): 0 | B. signalgrass plant response rating (surinam grass; [2]): 0 | B. signalgrass plant response rating (surinam grass; [3]): 0 | B. signalgrass plant response rating (surinam grass; [4]): 0 | B. signalgrass plant response rating (surinam grass; [5]): 0 | B. signalgrass plant response rating (surinam grass; [6]): 0 | B. signalgrass plant response rating (surinam grass; [7]): 0 | B. signalgrass plant response rating (surinam grass; [8]): 3 | Cocklebur plant response rating (cocklebur; [1]): 0 | Cocklebur plant response rating (cocklebur; [2]): 0 | Cocklebur plant response rating (cocklebur; [3]): 0 | Cocklebur plant response rating (cocklebur; [4]): 0 | Cocklebur plant response rating (cocklebur; [5]): 0 | Cocklebur plant response rating (cocklebur; [6]): 0 | Cocklebur plant response rating (cocklebur; [7]): 0 | Cocklebur plant response rating (cocklebur; [8]): 0 | Corn plant response rating (corn; [1]): 0 | Corn plant response rating (corn; [2]): 0 | Corn plant response rating (corn; [3]): 0 | Corn plant response rating (corn; [4]): 0 | Corn plant response rating (corn; [5]): 0 | Corn plant response rating (corn; [6]): 0 | Corn plant response rating (corn; [7]): 0 | Corn plant response rating (corn; [8]): 0 | Crabgrass plant response rating (crabgrass; [1]): 0 | Crabgrass plant response rating (crabgrass; [2]): 0 | Crabgrass plant response rating (crabgrass; [3]): 0 | Crabgrass plant response rating (crabgrass; [4]): 0 | Crabgrass plant response rating (crabgrass; [5]): 0 | Crabgrass plant response rating (crabgrass; [6]): 0 | Crabgrass plant response rating (crabgrass; [7]): 0 | Crabgrass plant response rating (crabgrass; [8]): 0 | Soybean plant response rating (soybean; [1]): 1 | Soybean plant response rating (soybean; [2]): 0 | Soybean plant response rating (soybean; [3]): 0 | Soybean plant response rating (soybean; [4]): 1 | Soybean plant response rating (soybean; [5]): 0 | Soybean plant response rating (soybean; [6]): 1 | Soybean plant response rating (soybean; [7]): 3 | Soybean plant response rating (soybean; [8]): 0 | Sugarbeets plant response rating (sugar beet; [1]): 0 | Sugarbeets plant response rating (sugar beet; [2]): 0 | Sugarbeets plant response rating (sugar beet; [3]): 0 | Sugarbeets plant response rating (sugar beet; [4]): 0 | Sugarbeets plant response rating (sugar beet; [5]): 0 | Sugarbeets plant response rating (sugar beet; [6]): 0 | Sugarbeets plant response rating (sugar beet; [7]): 0 | Sugarbeets plant response rating (sugar beet; [8]): 0 | Velvetleaf plant response rating (velvetleaf; [1]): 0 | Velvetleaf plant response rating (velvetleaf; [2]): 0 | Velvetleaf plant response rating (velvetleaf; [3]): 0 | Velvetleaf plant response rating (velvetleaf; [4]): 0 | Velvetleaf plant response rating (velvetleaf; [5]): 0 | Velvetleaf plant response rating (velvetleaf; [6]): 0 | Velvetleaf plant response rating (velvetleaf; [7]): 0 | Velvetleaf plant response rating (velvetleaf; [8]): 0 | Wheat plant response rating (wheat; [1]): 0 | Wheat plant response rating (wheat; [2]): 0 | Wheat plant response rating (wheat; [3]): 0 | Wheat plant response rating (wheat; [4]): 0 | Wheat plant response rating (wheat; [5]): 0 | Wheat plant response rating (wheat; [6]): 0 | Wheat plant response rating (wheat; [7]): 0 | Wheat plant response rating (wheat; [8]): 0 | Wild oats plant response rating (wild oat; [1]): 0 | Wild oats plant response rating (wild oat; [2]): 0 | Wild oats plant response rating (wild oat; [3]): 0 | Wild oats plant response rating (wild oat; [4]): 0 | Wild oats plant response rating (wild oat; [5]): 0 | Wild oats plant response rating (wild oat; [6]): 0 | Wild oats plant response rating (wild oat; [7]): 0 | Nutsedge plant response rating (purple nutsedge; [1]): 0 | Nutsedge plant response rating (purple nutsedge; [2]): 0 | Nutsedge plant response rating (purple nutsedge; [3]): 0 | Nutsedge plant response rating (purple nutsedge; [4]): 0 | Nutsedge plant response rating (purple nutsedge; [5]): 0 | Nutsedge plant response rating (purple nutsedge; [6]): 0 | Nutsedge plant response rating (purple nutsedge; [7]): 0 | Nutsedge plant response rating (purple nutsedge; [8]): 0 | Rice plant response rating (rice; [9]): 0 | Rice plant response rating (rice; [10]): 0 | Rice plant response rating (rice; [11]): 0 | Rice plant response rating (rice; [12]): 2 | Rice plant response rating (rice; [13]): 0 | Rice plant response rating (rice; [14]): 0 | S. Flatsedge plant response rating (smallflower flatsedge; [9]): 0 | S. Flatsedge plant response rating (smallflower flatsedge; [10]): 0 | S. Flatsedge plant response rating (smallflower flatsedge; [11]): 0 | S. Flatsedge plant response rating (smallflower flatsedge; [12]): 0 | S. Flatsedge plant response rating (smallflower flatsedge; [13]): 0 | S. Flatsedge plant response rating (smallflower flatsedge; [14]): 0 | Ducksalad plant response rating (duck salad; [9]): 0 | Ducksalad plant response rating (duck salad; [10]): 0 | Ducksalad plant response rating (duck salad; [11]): 0 | Ducksalad plant response rating (duck salad; [12]): 0 | Ducksalad plant response rating (duck salad; [13]): 0 | Ducksalad plant response rating (duck salad; [14]): 0 | Barnyardgrass plant response rating (bamyardgrass; [9]): 0 | Barnyardgrass plant response rating (bamyardgrass; [10]): 2 | Barnyardgrass plant response rating (bamyardgrass; [11]): 2 | Barnyardgrass plant response rating (bamyardgrass; [12]): 4 | Barnyardgrass plant response rating (bamyardgrass; [13]): 4 | Barnyardgrass plant response rating (bamyardgrass; [14]): 6
